Reference: ChEMBL document CHEMBL6092189, “Synthesis of kanamycin-azole hybrids and investigation of their antifungal activities” (Bioorg Med Chem, 2024)
In brackets after ≈: the same amount, converted by molar mass. Activity calls are given as the source filed them. No cut-off for these calls is given here.

Key:
[1] = Cytotoxicity against human HeLa cells assessed as reduction in cell viability incubated for 24 hrs by MTT assay; assay type: toxicity, cell-based
[2] = tested on: Cell membrane; experiment: Induction of membrane permeabilization in azole-resistant Candida parapsilosis Cas08-0490 assessed as pore formation by measuring fluorescence intensity at 256 ug/ml measured after 25 mins by SYTOX Green dye based fluorescence analysis; assay type: subcellular; settings: dose 256.0 µg/ml
[3] = tested on: Escherichia coli; experiment: Antibacterial activity against Escherichia coli ATCC 25922 assessed as inhibition of bacterial growth incubated for 18 hrs by two-fold dilution method; assay type: functional
[4] = tested on: Candida albicans; experiment: Antifungal activity against azole-resistant Candida albicans 64124 assessed as inhibition of fungal growth incubated for 48 hrs by two-fold dilution method; assay type: functional
[5] = tested on: Cell membrane; experiment: Induction of membrane permeabilization in Candida albicans 64124 assessed as pore formation by measuring increase in fluorescence intensity at 1/4X MIC measured after 5 mins by SYTOX Green dye based fluorescence analysis
[6] = tested on: Candida albicans; experiment: Antifungal activity against Candida albicans MYA2876 assessed as inhibition of fungal growth incubated for 48 hrs by two-fold dilution method; assay type: functional
[7] = tested on: Diutina rugosa; experiment: Antifungal activity against Candida rugosa 95-967 assessed as inhibition of fungal growth incubated for 48 hrs by two-fold dilution assay; assay type: functional
[8] = tested on: Candida tropicalis; experiment: Antifungal activity against Candida tropicalis 95-41 assessed as inhibition of fungal growth incubated for 48 hrs by two-fold dilution assay; assay type: functional
[9] = tested on: Staphylococcus aureus; experiment: Antibacterial activity against Staphylococcus aureus ATCC 25923 assessed as inhibition of bacterial growth incubated for 18 hrs by two-fold dilution method; assay type: functional
[10] = tested on: Candida parapsilosis; experiment: Antifungal activity against azole-resistant Candida parapsilosis Cas08-0490 assessed as inhibition of fungal growth incubated for 48 hrs by two-fold dilution method; assay type: functional; settings: Lodderomyces parapsilosis
[11] = tested on: Cryptococcus neoformans; experiment: Antifungal activity against Cryptococcus neoformans VR-54 assessed as inhibition of fungal growth incubated for 48 hrs by two-fold dilution assay; assay type: functional
[12] = tested on: Cell membrane; experiment: Induction of membrane permeabilization in Candida rugosa 95-967 assessed as pore formation by measuring fluorescence intensity at 256 ug/ml measured after 25 mins by SYTOX Green dye based fluorescence analysis; assay type: subcellular; settings: Diutina rugosa, dose 256.0 µg/ml
[13] = tested on: Cryptococcus neoformans; experiment: Antifungal activity against Cryptococcus neoformans H99 assessed as inhibition of fungal growth incubated for 48 hrs by two-fold dilution method; assay type: functional
[14] = tested on: Cell membrane; experiment: Induction of membrane permeabilization in Candida albicans MYA2876 assessed as pore formation by measuring increase in fluorescence intensity at 1/4X MIC measured after 5 mins by SYTOX Green dye based fluorescence analysis
[15] = tested on: Diutina rugosa; experiment: Antifungal activity against Candida rugosa 95-967 assessed as fractional inhibitory concentration index incubated for 48 hrs in presence of kanamycin by microdilution checkerboard assay; assay type: functional
[16] = tested on: Candida albicans; experiment: Antifungal activity against azole-resistant Candida albicans 64124 assessed as fractional inhibitory concentration index incubated for 48 hrs in presence of kanamycin by microdilution checkerboard assay; assay type: functional
[17] = tested on: Candida parapsilosis; experiment: Antifungal activity against azole-resistant Candida parapsilosis Cas08-0490 assessed as fractional inhibitory concentration index incubated for 48 hrs in presence of kanamycin by microdilution checkerboard assay; assay type: functional
[18] = tested on: Cryptococcus neoformans; experiment: Antifungal activity against Cryptococcus neoformans H99 assessed as fractional inhibitory concentration index incubated for 48 hrs in presence of kanamycin by microdilution checkerboard assay; assay type: functional
[19] = tested on: Candida albicans; experiment: Antifungal activity against Candida albicans MYA2876 assessed as fractional inhibitory concentration index incubated for 48 hrs in presence of kanamycin by microdilution checkerboard assay; assay type: functional
[20] = tested on: Candida tropicalis; experiment: Antifungal activity against Candida tropicalis 95-41 assessed as fractional inhibitory concentration index incubated for 48 hrs in presence of kanamycin by microdilution checkerboard assay; assay type: functional
[21] = tested on: Cryptococcus neoformans; experiment: Antifungal activity against Cryptococcus neoformans VR-54 assessed as fractional inhibitory concentration index incubated for 48 hrs in presence of kanamycin by microdilution checkerboard assay; assay type: functional

| Compound | IC50 at 24 h [1] [µg/mL] | MIC [3] [µg/mL] | MIC [4] [µg/mL] | MIC [6] [µg/mL] | MIC [7] [µg/mL] | MIC [8] [µg/mL] | MIC [9] [µg/mL] | MIC [10] [µg/mL] | MIC [11] [µg/mL] | MIC [13] [µg/mL] | also measured |
| --- | --- | --- | --- | --- | --- | --- | --- | --- | --- | --- | --- |
| Cl.Cl.Cl.Cl.NC[C@H]1O[C@H](O[C@H]2[C@H](O)[C@@H](O[C@H]3O[C@H](Cn4cc(COC(Cn5cncn5)c5ccc(Cl)cc5Cl)nn4)[C@@H](O)[C@H](N)[C@H]3O)[C@H](N)C[C@@H]2N)[C@H](O)[C@@H](O)[C@@H]1O (some centres undefined) | > 100 | ≥ 256 | 16 | 16 | ≥ 256 | 32 | 128 | ≥ 256 | 32 | 16 | Activity [2]: inactive; Activity [5]: Active; Activity [12]: inactive; Activity [14]: Active |
| OC(Cn1cncn1)c1ccc(Cl)cc1Cl (centres undefined) | – | – | 128 (≈ 496 µM) | 64 (≈ 248 µM) | 64 (≈ 248 µM) | 32 (≈ 124 µM) | – | 64 (≈ 248 µM) | 32 (≈ 124 µM) | 64 (≈ 248 µM) | fractional inhibitory concentration index (FICI) [15]: 2.25; fractional inhibitory concentration index (FICI) [16]: 1; fractional inhibitory concentration index (FICI) [17]: 2; fractional inhibitory concentration index (FICI) [18]: 1; fractional inhibitory concentration index (FICI) [19]: 1; fractional inhibitory concentration index (FICI) [20]: 1.5; fractional inhibitory concentration index (FICI) [21]: 1 |
| Cl.Cl.Cl.Cl.NC[C@H]1O[C@H](O[C@H]2[C@H](O)[C@@H](O[C@H]3O[C@H](Cn4cc(CNC(=O)c5ccc(Cl)cc5Cl)nn4)[C@@H](O)[C@H](N)[C@H]3O)[C@H](N)C[C@@H]2N)[C@H](O)[C@@H](O)[C@@H]1O | > 100 | 128 | ≥ 256 | ≥ 256 | ≥ 256 | ≥ 256 | 128 | ≥ 256 | ≥ 256 | ≥ 256 | – |
| NC[C@H]1O[C@H](O[C@H]2[C@H](O)[C@@H](O[C@H]3O[C@H](CO)[C@@H](O)[C@H](N)[C@H]3O)[C@H](N)C[C@@H]2N)[C@H](O)[C@@H](O)[C@@H]1O [KANAMYCIN] | – | 4 (≈ 8.26 µM) | ≥ 256 | ≥ 256 | ≥ 256 | ≥ 256 | 1 (≈ 2.06 µM) | ≥ 256 | ≥ 256 | 128 (≈ 264 µM) | – |
| OC(Cn1cncn1)(Cn1cncn1)c1ccc(F)cc1F [FLUCONAZOLE] | – | – | ≥ 256 | 128 (≈ 418 µM) | 8 (≈ 26.1 µM) | 2 (≈ 6.53 µM) | – | 16 (≈ 52.2 µM) | 1 (≈ 3.27 µM) | 1 (≈ 3.27 µM) | – |
